Measurements as given in patent publication US8124610B2, “Sodium channel inhibitors” (Icagen Inc., priority 2007, dated 2012).
Like-named read-outs stand apart in the source and are kept apart here.

How the values were obtained:
hSCN3A = biological target: T1, hSCN3A (Homo sapiens, UniProt Q9NY46); experiment: Whole-cell patch-clamp electrophysiology (conventional or PatchXpress), HEK cells expressing hSCN3A, estimated IC-50; type: cell-based; details: read-out: SCN3A EIC-50
T1 construct: expressed in transfected cells
Method: Human Embryonic Kidney (HEK) cells were transfected with hSCN3A or hSCN9A constructs using lipofectamine reagent (Invitrogen), using standard techniques. Cells stably expressing the hSCN3A or hSCN9A constructs were identified by their resistance to G-418 (400 μg/ml). Clones were screened for expression using the whole-cell voltage-clamp technique. HEK cells stably transfected with hSCN3A or hSCN9A were maintained in DMEM medium supplemented with 10% heat-inactivated fetal bovine serum and 400 μg/ml G418 sulfate in an incubator at 37° C. with a humidified atmosphere of 10% CO2. For HTS, cells were harvested from flasks by trypsinization and replated in an appropriate multi-well plate (typically 96 or 384 wells/plate) such that confluence would be achieved within 24 hours of plating. For electrophysiological studies, cells were removed from the culture flask by brief trypsinization and replated at low density onto glass cover slips. Cells were typically used for electrophysiological experiments within 24 to 72 h after plating. Cover slips containing HEK cells expressing hSCN3A or hSCN9A were placed in a bath on the stage of an inverted microscope and perfused (approximately 1 ml/min) with extracellular solution of the following composition: 138 mM NaCl, 2 mM CaCl2, 5.4 mM KCl, 1 mM MgCl2, 10 mM glucose, and 10 mM HEPES, pH 7.4, with NaOH. […] All recordings were made at room temperature (22-24° C.) using AXOPATCH 200B amplifiers and PCLAMP software (Axon Instruments, Burlingame, Calif.) or PatchXpress 7000 hardware and associated software (Axon Instruments, Burlingame, Calif.). hSCN3A or hSCN9A currents in HEK cells were measured using the whole-cell configuration of the patch-clamp technique (Hamill et al., 1981). […] As a result, voltage errors were negligible and no correction was applied. Current records were acquired at 20 to 50 KHz and filtered at 5 to 10 KHz. HEK cells stably transfected with hSCN3A or hSCN9A were viewed under Hoffman contrast optics and placed in front of an array of flow pipes emitting either control or compound-containing extracellular solutions. All compounds were dissolved in dimethyl sulfoxide to make 10 mM stock solutions, which were then diluted into extracellular solution to attain the final concentrations desired. […] The voltage-dependence of inactivation was determined by applying a series of depolarizing prepulses (8 sec long in 10 mV increments) from a negative holding potential. The voltage was then immediately stepped to 0 mV to assess the magnitude of the sodium current. Currents elicited at 0 mV were plotted as a function of prepulse potential to allow estimation of the voltage midpoint of inactivation (V1/2). Cells were then voltage clamped at the empirically determined V1/2. Compounds were tested for their ability to inhibit hSCN3A or hSCN9A sodium channels by activating the channel with a 20 msec voltage step to 0 mV following an 8 second conditioning prepulse to the empirically determined V1-2 (Table B). Compound effect (% inhibition) was determined by difference in current amplitude before and after application of test compounds. […] In some cases electrophysiological assays were conducted with PatchXpress 7000 hardware and associated software (Molecular Devices Corp) (Table B). All assay buffers and solutions were identical to those used in conventional whole-cell voltage clamp experiments described above. hSCN3A or hSCN9A containing cells were grown as above to 50%-80% confluency and harvested by trypsinization. Trypsinized cells were washed and resuspended in extracellular buffer at a concentration of 1×10^6 cells/ml. The onboard liquid handling facility of the PatchXpress was used for dispensing cells and application of test compounds. Determination of the voltage midpoint of inactivation was as described for conventional whole-cell recordings. Cells were then voltage-clamped to the empirically determined V1/2 and current was activated by a 20 msec voltage step to 0 mV.

hSCN9A = biological target: T2, hSCN9A (Homo sapiens, UniProt Q15858); experiment: Whole-cell patch-clamp electrophysiology (conventional or PatchXpress), HEK cells expressing hSCN9A, estimated IC-50; type: cell-based; details: read-out: SCN9A EIC-50
T2 construct: expressed in transfected cells
Outline: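 Stably transfected HEK cells recorded by whole-cell voltage clamp (manual or PatchXpress) at 22–24 °C in pH 7.4 HEPES-buffered extracellular solution. Cells held at the empirically determined inactivation V1/2 after an 8 s prepulse, then stepped to 0 mV for 20 ms; % inhibition from current amplitude before vs after compound.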

[1] = commercial compounds (second Table VI), estimated IC-50 from single point electrophysiology
[2] = estimated IC-50, HEK cells expressing hSCN3A, class symbols or bounds
[3] = estimated IC-50, HEK cells expressing hSCN9A, class symbols or bounds

T2 sequence (Q15858 whole entry): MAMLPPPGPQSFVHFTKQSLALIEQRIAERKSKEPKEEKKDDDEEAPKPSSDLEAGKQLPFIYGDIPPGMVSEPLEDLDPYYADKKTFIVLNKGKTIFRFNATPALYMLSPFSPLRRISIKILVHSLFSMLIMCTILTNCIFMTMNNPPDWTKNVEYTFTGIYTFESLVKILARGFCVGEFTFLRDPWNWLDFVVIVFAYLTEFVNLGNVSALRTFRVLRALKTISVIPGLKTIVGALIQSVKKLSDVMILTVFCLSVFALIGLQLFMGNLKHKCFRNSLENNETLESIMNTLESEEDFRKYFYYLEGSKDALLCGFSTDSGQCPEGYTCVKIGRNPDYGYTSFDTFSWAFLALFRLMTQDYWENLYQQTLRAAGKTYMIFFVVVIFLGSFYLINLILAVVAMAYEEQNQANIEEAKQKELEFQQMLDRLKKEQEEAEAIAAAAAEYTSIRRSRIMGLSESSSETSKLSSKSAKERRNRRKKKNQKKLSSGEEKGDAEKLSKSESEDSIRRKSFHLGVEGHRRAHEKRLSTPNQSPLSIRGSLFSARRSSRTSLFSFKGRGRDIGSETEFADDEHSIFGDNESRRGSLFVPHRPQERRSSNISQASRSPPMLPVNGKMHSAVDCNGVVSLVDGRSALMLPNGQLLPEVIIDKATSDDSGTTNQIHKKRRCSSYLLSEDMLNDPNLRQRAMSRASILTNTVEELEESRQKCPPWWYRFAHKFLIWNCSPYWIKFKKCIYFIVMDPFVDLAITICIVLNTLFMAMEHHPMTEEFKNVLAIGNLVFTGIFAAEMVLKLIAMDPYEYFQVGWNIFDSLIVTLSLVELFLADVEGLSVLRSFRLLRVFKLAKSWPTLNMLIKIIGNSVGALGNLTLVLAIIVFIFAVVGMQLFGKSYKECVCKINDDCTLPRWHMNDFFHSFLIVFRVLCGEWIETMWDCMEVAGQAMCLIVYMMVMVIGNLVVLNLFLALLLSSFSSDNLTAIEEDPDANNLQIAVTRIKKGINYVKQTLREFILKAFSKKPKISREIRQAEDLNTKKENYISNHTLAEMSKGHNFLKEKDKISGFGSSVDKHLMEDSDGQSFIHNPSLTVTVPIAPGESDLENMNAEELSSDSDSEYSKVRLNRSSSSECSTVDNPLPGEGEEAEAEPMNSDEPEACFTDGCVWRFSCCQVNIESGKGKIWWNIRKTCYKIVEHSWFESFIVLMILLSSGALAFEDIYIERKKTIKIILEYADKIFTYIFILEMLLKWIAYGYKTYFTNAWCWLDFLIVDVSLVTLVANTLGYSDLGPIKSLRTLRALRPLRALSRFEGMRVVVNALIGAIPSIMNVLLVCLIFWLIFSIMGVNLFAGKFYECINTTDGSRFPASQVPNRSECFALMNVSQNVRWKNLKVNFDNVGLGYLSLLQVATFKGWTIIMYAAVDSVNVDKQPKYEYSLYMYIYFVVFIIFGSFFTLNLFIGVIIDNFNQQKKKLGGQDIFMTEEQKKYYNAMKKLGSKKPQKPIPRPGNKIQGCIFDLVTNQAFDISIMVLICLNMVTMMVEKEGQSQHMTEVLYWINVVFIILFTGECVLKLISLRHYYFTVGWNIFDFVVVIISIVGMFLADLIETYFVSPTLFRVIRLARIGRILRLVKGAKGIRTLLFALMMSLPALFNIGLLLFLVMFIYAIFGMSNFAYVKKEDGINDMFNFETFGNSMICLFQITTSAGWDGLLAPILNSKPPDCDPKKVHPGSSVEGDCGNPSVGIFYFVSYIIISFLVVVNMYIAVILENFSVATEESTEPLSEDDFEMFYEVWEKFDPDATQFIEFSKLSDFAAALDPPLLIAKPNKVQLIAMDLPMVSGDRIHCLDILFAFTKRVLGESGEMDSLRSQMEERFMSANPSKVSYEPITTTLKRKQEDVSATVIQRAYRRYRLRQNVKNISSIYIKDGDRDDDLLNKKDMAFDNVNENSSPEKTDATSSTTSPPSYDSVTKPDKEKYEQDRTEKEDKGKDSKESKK
T1 sequence (Q9NY46 whole entry): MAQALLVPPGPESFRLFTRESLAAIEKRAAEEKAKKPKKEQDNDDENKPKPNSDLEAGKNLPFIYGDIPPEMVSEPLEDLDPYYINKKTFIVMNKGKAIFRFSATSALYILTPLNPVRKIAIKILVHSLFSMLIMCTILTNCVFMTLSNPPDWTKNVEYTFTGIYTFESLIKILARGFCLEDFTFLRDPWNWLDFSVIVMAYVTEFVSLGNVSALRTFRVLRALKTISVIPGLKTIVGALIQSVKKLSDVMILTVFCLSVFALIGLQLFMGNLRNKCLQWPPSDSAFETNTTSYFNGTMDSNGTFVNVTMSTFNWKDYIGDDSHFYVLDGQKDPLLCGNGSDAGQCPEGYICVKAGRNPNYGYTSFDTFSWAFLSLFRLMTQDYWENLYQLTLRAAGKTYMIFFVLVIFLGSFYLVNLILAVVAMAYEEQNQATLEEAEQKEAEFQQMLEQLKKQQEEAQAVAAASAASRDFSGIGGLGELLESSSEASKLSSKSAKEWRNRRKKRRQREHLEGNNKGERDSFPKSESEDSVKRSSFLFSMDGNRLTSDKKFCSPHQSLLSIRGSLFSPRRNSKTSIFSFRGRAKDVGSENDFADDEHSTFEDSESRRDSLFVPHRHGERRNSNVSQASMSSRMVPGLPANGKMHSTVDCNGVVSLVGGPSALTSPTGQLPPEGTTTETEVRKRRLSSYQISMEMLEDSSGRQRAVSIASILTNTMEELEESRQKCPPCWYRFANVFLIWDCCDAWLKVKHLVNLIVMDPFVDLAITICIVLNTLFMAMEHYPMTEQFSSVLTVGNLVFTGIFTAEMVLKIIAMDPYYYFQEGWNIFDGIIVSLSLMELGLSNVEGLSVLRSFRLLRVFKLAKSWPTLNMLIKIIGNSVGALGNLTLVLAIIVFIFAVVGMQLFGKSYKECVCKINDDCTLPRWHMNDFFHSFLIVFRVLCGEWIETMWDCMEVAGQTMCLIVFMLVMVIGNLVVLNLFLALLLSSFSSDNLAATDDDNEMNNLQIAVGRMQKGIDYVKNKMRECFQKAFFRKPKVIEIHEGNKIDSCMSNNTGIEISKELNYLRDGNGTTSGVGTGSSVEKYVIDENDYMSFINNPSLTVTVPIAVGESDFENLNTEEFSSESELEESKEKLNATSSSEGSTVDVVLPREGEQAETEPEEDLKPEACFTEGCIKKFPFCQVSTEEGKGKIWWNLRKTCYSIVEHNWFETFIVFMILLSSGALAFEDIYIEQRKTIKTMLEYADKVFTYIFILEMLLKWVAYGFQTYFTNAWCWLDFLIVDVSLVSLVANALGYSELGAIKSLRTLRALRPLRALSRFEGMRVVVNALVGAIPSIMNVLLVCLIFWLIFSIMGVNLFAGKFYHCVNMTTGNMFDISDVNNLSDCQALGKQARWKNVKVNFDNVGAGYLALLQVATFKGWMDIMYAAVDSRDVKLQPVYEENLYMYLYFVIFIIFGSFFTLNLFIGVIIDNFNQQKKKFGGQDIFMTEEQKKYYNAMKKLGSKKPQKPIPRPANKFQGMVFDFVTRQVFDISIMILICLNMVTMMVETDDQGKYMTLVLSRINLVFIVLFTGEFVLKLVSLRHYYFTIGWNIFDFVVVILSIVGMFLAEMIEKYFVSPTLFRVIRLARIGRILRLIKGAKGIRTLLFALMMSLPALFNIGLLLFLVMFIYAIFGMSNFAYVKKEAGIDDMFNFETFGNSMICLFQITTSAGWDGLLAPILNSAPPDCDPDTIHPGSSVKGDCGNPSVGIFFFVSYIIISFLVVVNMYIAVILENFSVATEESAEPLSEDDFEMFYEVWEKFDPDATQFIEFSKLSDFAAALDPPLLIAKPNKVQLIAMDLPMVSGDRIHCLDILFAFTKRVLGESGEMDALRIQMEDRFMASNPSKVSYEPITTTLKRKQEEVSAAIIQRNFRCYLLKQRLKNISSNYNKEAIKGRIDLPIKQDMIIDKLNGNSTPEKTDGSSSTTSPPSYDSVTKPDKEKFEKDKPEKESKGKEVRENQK

IC50 (hSCN3A; [1])	IC50 (hSCN9A; [1])	IC50 (hSCN3A; [2])	IC50 (hSCN9A; [3])	Structure (SMILES)
> 1000 nM	> 3000 nM			CCOC(=O)C1(C)C=C(Nc2ccc(S(=O)(=O)Nc3nccs3)cc2)C(=O)N1c1ccccc1 (centres unmarked) [Compound 38, ethyl 2-methyl-5-oxo-1-phenyl-4-(4-(N-thiazol-2-ylsulfamoyl)phenylamino)-2,5-dihydro-1H-pyrrole-2-carboxylate, reference compound]
> 1000 nM	> 3000 nM			Cc1nnc(Nc2ccc(S(=O)(=O)Nc3nccs3)cc2)c2ccccc12 [Compound 39, 4-(4-methylphthalazin-1-ylamino)-N-(thiazol-2-yl)benzenesulfonamide, reference compound]
1320 nM	3490 nM			O=S(=O)(Nc1nccs1)c1ccc(Nc2nnc(-c3ccc(Cl)cc3)c3ccccc23)cc1 [Compound 40, 4-(4-(4-chlorophenyl)phthalazin-1-ylamino)-N-(thiazol-2-yl)benzenesulfonamide, reference compound]
1610 nM	> 3000 nM			Cc1ccc(-c2nnc(Nc3ccc(S(=O)(=O)Nc4nccs4)cc3)c3ccccc23)cc1 [Compound 41, N-(thiazol-2-yl)-4-(4-p-tolylphthalazin-1-ylamino)benzenesulfonamide, reference compound]
2030 nM	> 3000 nM			O=S(=O)(Nc1nccs1)c1ccc(Nc2nnc(-c3ccccc3)c3ccccc23)cc1 [Compound 42, 4-(4-phenylphthalazin-1-ylamino)-N-(thiazol-2-yl)benzenesulfonamide, reference compound]
		> 1000 nM	2000 to 10000 nM	O=S(=O)(Nc1nccs1)c1ccc(Nc2nc(-c3ccccc3)cs2)cc1 [Compound 43, 4-(4-phenylthiazol-2-ylamino)-N-(thiazol-2-yl)benzenesulfonamide]
		> 1000 nM	> 3000 nM	O=S(=O)(Nc1nccs1)c1ccc(Nc2ncccn2)cc1 [Compound 44, 4-(pyrimidin-2-ylamino)-N-(thiazol-2-yl)benzenesulfonamide]
		< 2000 nM	> 10000 nM	O=S(=O)(Nc1nccs1)c1ccc(Nc2nccc(OCc3ccccc3)n2)cc1 [Compound 45, 4-(4-(benzyloxy)pyrimidin-2-ylamino)-N-(thiazol-2-yl)benzenesulfonamide]
		< 2000 nM	> 10000 nM	O=S(=O)(Nc1nccs1)c1ccc(Nc2nccc(OCC(c3ccccc3)c3ccccc3)n2)cc1 [Compound 46, 4-(4-(2,2-diphenylethoxy)pyrimidin-2-ylamino)-N-(thiazol-2-yl)benzenesulfonamide]
		< 2000 nM	> 3000 nM	O=S(=O)(Nc1nccs1)c1ccc(Nc2nc(-c3ccccc3)c(-c3ccccc3)s2)cc1 [Compound 47, 4-(4,5-diphenylthiazol-2-ylamino)-N-(thiazol-2-yl)benzenesulfonamide]
		< 2000 nM	> 1000 nM	O=S(=O)(Nc1nccs1)c1ccc(Nc2nc(COc3ccccc3)cs2)cc1 [Compound 48, 4-(4-(phenoxymethyl)thiazol-2-ylamino)-N-(thiazol-2-yl)benzenesulfonamide]
		< 2000 nM	< 2000 nM	O=S(=O)(Nc1nccs1)c1ccc(Nc2nc(CC(c3ccccc3)c3ccccc3)cs2)cc1 [Compound 49, 4-(4-(2,2-diphenylethyl)thiazol-2-ylamino)-N-(thiazol-2-yl)benzenesulfonamide]
		< 2000 nM	2000 to 10000 nM	O=S(=O)(Nc1nccs1)c1ccc(Nc2nc(CCCOc3ccccc3)cs2)cc1 [Compound 50, 4-(4-(3-phenoxypropyl)thiazol-2-ylamino)-N-(thiazol-2-yl)benzenesulfonamide]
		< 2000 nM	2000 to 10000 nM	O=S(=O)(Nc1nccs1)c1ccc(Nc2nc(CCC3CCCC3)cs2)cc1 [Compound 51, 4-(4-(2-cyclopentylethyl)thiazol-2-ylamino)-N-(thiazol-2-yl)benzenesulfonamide]
		< 2000 nM	< 2000 nM	O=S(=O)(Nc1nccs1)c1ccc(Nc2nc(COc3ccc(Cl)cc3)cs2)cc1 [Compound 52, 4-(4-((4-chlorophenoxy)methyl)thiazol-2-ylamino)-N-(thiazol-2-yl)benzenesulfonamide]
		< 2000 nM	> 1000 nM	O=S(=O)(Nc1nccs1)c1ccc(Nc2nc(C3CC3c3ccccc3)cs2)cc1 (centres unmarked) [Compound 53, 4-(4-(2-phenylcyclopropyl)thiazol-2-ylamino)-N-(thiazol-2-yl)benzenesulfonamide]
		2000 to 10000 nM	> 1000 nM	O=S(=O)(Nc1nccs1)c1ccc(Nc2nccc(OCc3ccccc3F)n2)cc1 [Compound 54, 4-(4-(2-fluorobenzyloxy)pyrimidin-2-ylamino)-N-(thiazol-2-yl)benzenesulfonamide]
		< 2000 nM	> 1000 nM	O=S(=O)(Nc1nccs1)c1ccc(Nc2nccc(OCc3ccc(C(F)(F)F)cc3)n2)cc1 [Compound 55, N-(thiazol-2-yl)-4-(4-(4-(trifluoromethyl)benzyloxy)pyrimidin-2-ylamino)benzenesulfonamide]
		< 2000 nM	< 2000 nM	O=S(=O)(Nc1nccs1)c1ccc(Nc2nc(CNCC(c3ccccc3)c3ccccc3)cs2)cc1 [Compound 56, 4-(4-((2,2-diphenylethylamino)methyl)thiazol-2-ylamino)-N-(thiazol-2-yl)benzenesulfonamide]
		2000 to 10000 nM	> 1000 nM	O=S(=O)(Nc1nccs1)c1ccc(Nc2nc(CNCCOc3ccccc3)cs2)cc1 [Compound 57, 4-(4-((2-phenoxyethylamino)methyl)thiazol-2-ylamino)-N-(thiazol-2-yl)benzenesulfonamide]
		> 1000 nM	2000 to 10000 nM	O=S(=O)(Nc1nccs1)c1ccc(Nc2nc(CN3CCC[C@H]3CN3CCCC3)cs2)cc1 [Compound 58, (S)-4-(4-((2-(pyrrolidin-1-ylmethyl)pyrrolidin-1-yl)methyl)thiazol-2-ylamino)-N-(thiazol-2-yl)benzenesulfonamide]
		< 2000 nM	2000 to 10000 nM	O=S(=O)(Nc1nccs1)c1ccc(Nc2nc(CNC(c3ccccc3)c3ccccc3)cs2)cc1 [Compound 60, 4-(4-((benzhydrylamino)methyl)thiazol-2-ylamino)-N-(thiazol-2-yl)benzenesulfonamide]
		< 2000 nM	< 2000 nM	O=S(=O)(Nc1nccs1)c1ccc(Nc2nc(CNCCC(c3ccccc3)c3ccccc3)cs2)cc1 [Compound 61, 4-(4-((3,3-diphenylpropylamino)methyl)thiazol-2-ylamino)-N-(thiazol-2-yl)benzenesulfonamide]
		< 2000 nM	2000 to 10000 nM	CC(C)(C)c1ccc(OCc2csc(Nc3ccc(S(=O)(=O)Nc4nccs4)cc3)n2)cc1 [Compound 62, 4-(4-((4-tert-butylphenoxy)methyl)thiazol-2-ylamino)-N-(thiazol-2-yl)benzenesulfonamide]
		< 2000 nM	2000 to 10000 nM	CC(Oc1ccccc1)c1csc(Nc2ccc(S(=O)(=O)Nc3nccs3)cc2)n1 (centres unmarked) [Compound 63, 4-(4-(1-phenoxyethyl)thiazol-2-ylamino)-N-(thiazol-2-yl)benzenesulfonamide]
